Experimental findings from US20090325952A1, “PYRAZOLO[3,4-B]PYRIDINE COMPOUNDS, AND THEIR USE AS PDE4 INHIBITORS” (Glaxo Group Limited, priority 2006, published 2009) are described below.

The experiment addresses PDE4D (human recombinant) (Homo sapiens, UniProt Q08499). The experiment is described as follows: Inhibition of PDE4D activity (FP assay). It is filed as biochemical. Particulars: FP assay or generally similar assay, ±about 0.5 or more; for IC50: read-out: PDE4D pIC50 (converted). The text has this: Human recombinant PDE4D (HSPDE4D3A) is disclosed in P. A. Baecker et al., “Isolation of a cDNA encoding a human rolipram-sensitive cyclic AMP phoshodiesterase (PDE IVD)”, Gene, 1994, 138, 253-256.
The ability of compounds to inhibit catalytic activity at PDE4B (human recombinant) or PDE4D (human recombinant) can optionally be determined by IMAP Fluorescence Polarisation (FP) assay (IMAP Explorer kit, available from Molecular Devices Corporation, Sunnydale, Calif., USA; Molecular Devices code: R8062) in 384-well format.
The IMAP FP assay is able to measure PDE activity in an homogenous, non-radioactive assay format. The FP assay uses the ability of immobilised trivalent metal cations, coated onto nanoparticles (tiny beads), to bind the phosphate group of Fl-AMP that is produced on the hydrolysis of fluorescein-labelled (Fl) cyclic adenosine mono-phosphate (Fl-cAMP) to the non-cyclic Fl-AMP form. […] Binding of Fl-AMP product to the beads (coated with the immobilised trivalent cations) slows the rotation of the bound Fl-AMP and leads to an increase in the fluorescence polarisation ratio of parallel to perpendicular light. Inhibition of the PDE reduces/inhibits this signal increase.
Test compounds (small volume, e.g. ca. 0.5 to 1 microlitres (ul), suitably ca. 0.5 ul, of solution in DMSO) are preincubated at ambient temperature (room temperature, e.g. 19-23° C.) in black 384-well microtitre plates (supplier: NUNC, code 262260) with PDE enzyme in 10 mM Tris-HCl buffer pH 7.2, 10 mM MgCl2, 0.1% (w/v) bovine serum albumin, and 0.05% NaN3 for 10-30 minutes. The enzyme level is set by experimentation so that reaction is linear throughout the incubation. Fluorescein adenosine 3′,5′-cyclic phosphate (from Molecular Devices Corporation, Molecular Devices code: R7091) is added to give about 40 nM final concentration (final assay volume usually ca. 20-40 ul, suitably ca. 20 ul). Plates are mixed on an orbital shaker for 10 seconds and incubated at ambient temperature for 40 minutes. IMAP binding reagent (as described above, from Molecular Devices Corporation, Molecular Devices code: R7207) is added (60 ul of a 1 in 400 dilution in binding buffer of the kit stock solution) to terminate the assay. Plates are allowed to stand at ambient temperature for 1 hour. The Fluorescence Polarisation (FP) ratio of parallel to perpendicular light is measured using an Analyst™ plate reader (from Molecular Devices Corporation). For inhibition curves, 10 concentrations (e.g. 1.5 nM-30 uM) of each compound are assayed. Curves are analysed using ActivityBase and XLfit (ID Business Solutions Limited, 2 Ocean Court, Surrey Research Park, Guildford, Surrey GU2 7QB, United Kingdom). Results are expressed as pIC50 values.
The PDE4D pIC50 values of some compounds or salts of the invention are as follows, as measured using an FP assay or a generally similar assay: • the salt of Example 1A1: PDE4D pIC50=about 10.7 (about 0.5 or more) (n=8). • the compound of Example 1B: PDE4D pIC50=about 10.4 (about 0.5 or more) (n=2). • the salt of Example 9: PDE4D pIC50>about 11.0 (± about 0.5 or more) (n=1). • the salt of Example 19: PDE4D pIC50=about 10.7 (±about 0.5 or more) (n=2). • the salt of Example 26: PDE4D pIC50=about 9.4 (±about 0.5 or more) (n=2). • the compound of Example 23A: PDE4D pIC50=about 10.5 (± about 0.5 or more) (n=1). Emesis: Some known PDE4 inhibitors can cause emesis and/or nausea to greater or lesser extents, especially after systemic exposure e.g. after oral administration (e.g. see Z. Huang et al., Current Opinion in Chemical Biology, 2001, 5: 432-438, see especially pages 433-434 and refs cited therein). Therefore, it would be preferable, but not essential, if a PDE4 inhibitory compound or salt of the invention were to cause only limited or manageable emetic side-effects, e.g. after inhaled or parenteral or external-topical administration. […]

Where a name gives a salt, the structure may show the parent alone.

Sequence of PDE4D (human recombinant) (Q08499 1-673 isoform Q08499-2): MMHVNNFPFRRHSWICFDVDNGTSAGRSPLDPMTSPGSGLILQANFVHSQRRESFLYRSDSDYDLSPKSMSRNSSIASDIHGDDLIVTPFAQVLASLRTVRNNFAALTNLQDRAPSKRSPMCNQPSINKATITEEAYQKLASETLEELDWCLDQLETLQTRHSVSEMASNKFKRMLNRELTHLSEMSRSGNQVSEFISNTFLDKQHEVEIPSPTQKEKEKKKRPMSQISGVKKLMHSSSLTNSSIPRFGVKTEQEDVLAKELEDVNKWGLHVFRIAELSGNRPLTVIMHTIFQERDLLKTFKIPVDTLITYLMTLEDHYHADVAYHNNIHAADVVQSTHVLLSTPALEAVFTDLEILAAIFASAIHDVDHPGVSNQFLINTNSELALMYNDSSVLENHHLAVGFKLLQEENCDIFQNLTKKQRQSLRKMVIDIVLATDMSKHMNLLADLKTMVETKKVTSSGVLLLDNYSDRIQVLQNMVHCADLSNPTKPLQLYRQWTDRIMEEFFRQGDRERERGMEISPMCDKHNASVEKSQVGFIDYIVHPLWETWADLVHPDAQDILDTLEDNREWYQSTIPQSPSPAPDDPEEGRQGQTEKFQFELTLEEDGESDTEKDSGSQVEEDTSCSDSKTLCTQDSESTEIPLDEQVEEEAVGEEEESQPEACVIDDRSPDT

As to `CCc1nc2c(cnn2CC)c(NC2CCOCC2)c1CNC(=O)c1ccc(CCCCOCCCCN(C)CCO)cc1` [Example 19, formate salt of N-{[1,6-diethyl-4-(tetrahydro-2H-pyran-4-ylamino)-1H-pyrazolo[3,4-b]pyridin-5-yl]methyl}-4-[4-({4-[(2-hydroxyethyl)(methyl)amino]butyl}oxy)butyl]benzamide], the IC50 was approximately 0.02 nM. Still for that read-out and setting: the value for `CCc1nc2c(cnn2CC)c(NC2CCN(C(N)=O)CC2)c1CNC(=O)c1ccc(CCCCOCCCCN2CCOCC2)cc1` [Example 23A, 4-({1,6-diethyl-5-[({[4-(4-{[4-(4-morpholinyl)butyl]oxy}butyl)phenyl]carbonyl}amino)methyl]-1H-pyrazolo[3,4-b]pyridin-4-yl}amino)-1-piperidinecarboxamide] was approximately 0.0316 nM.

For `CCc1nc2c(cnn2CC)c(NC2CCN(C(N)=O)CC2)c1CNC(=O)c1ccc(NC(=O)CCCCCCCN(C)CCO)cc1.O=C(O)C(F)(F)F` [Example 9, 4-({1,6-diethyl-5-[({[4-({8-[(2-hydroxyethyl)(methyl)amino]octanoyl}amino)phenyl]carbonyl}amino)methyl]-1H-pyrazolo[3,4-b]pyridin-4-yl}amino)-1-piperidinecarboxamide trifluoroacetate (salt)], the “PDE4D pIC50” value is on record as more than 11.0. Take `CCn1ncc2c(NC3CCOCC3)c(CNC(=O)c3ccc(NC(=O)CCCCCCCN(C)CCO)cc3)cnc21` [Example 26, Formate salt of N-{[1-ethyl-4-(tetrahydro-2H-pyran-4-ylamino)-1H-pyrazolo[3,4-b]pyridin-5-yl]methyl}-4-({8-[(2-hydroxyethyl)(methyl)amino]octanoyl}amino)benzamide]: the IC50 is approximately 0.398 nM. For the molecule `CCc1nc2c(cnn2CC)c(NC2CCOCC2)c1CNC(=O)c1ccc(NC(=O)CCCCCCCN(C)CCO)cc1` [Example 1A1, N-{[1,6-Diethyl-4-(tetrahydro-2H-pyran-4-ylamino)-1H-pyrazolo[3,4-b]pyridin-5-yl]methyl}-4-({8-[(2-hydroxyethyl)(methyl)amino]octanoyl}amino)benzamide dihydrochloride], the IC50 was approximately 0.02 nM. In the case of `CCc1nc2c(cnn2CC)c(NC2CCOCC2)c1CNC(=O)c1ccc(NC(=O)CCCCCCCN(C)CCO)cc1` [Example 1B, N-{[1,6-diethyl-4-(tetrahydro-2H-pyran-4-ylamino)-1H-pyrazolo[3,4-b]pyridin-5-yl]methyl}-4-({8-[(2-hydroxyethyl)(methyl)amino]octanoyl}amino)benzamide], the IC50 is approximately 0.0398 nM.
